Laboratory results: the Kinase Knowledgebase extract (Sharma et al. 2016)

Legend:
[1] = target: EGFR (human) (UniProt P00533); details: A431
[2] = target: EGFR (human) (UniProt P00533); details: a431

Chain of EGFR (human) (P00533 whole entry, looked up): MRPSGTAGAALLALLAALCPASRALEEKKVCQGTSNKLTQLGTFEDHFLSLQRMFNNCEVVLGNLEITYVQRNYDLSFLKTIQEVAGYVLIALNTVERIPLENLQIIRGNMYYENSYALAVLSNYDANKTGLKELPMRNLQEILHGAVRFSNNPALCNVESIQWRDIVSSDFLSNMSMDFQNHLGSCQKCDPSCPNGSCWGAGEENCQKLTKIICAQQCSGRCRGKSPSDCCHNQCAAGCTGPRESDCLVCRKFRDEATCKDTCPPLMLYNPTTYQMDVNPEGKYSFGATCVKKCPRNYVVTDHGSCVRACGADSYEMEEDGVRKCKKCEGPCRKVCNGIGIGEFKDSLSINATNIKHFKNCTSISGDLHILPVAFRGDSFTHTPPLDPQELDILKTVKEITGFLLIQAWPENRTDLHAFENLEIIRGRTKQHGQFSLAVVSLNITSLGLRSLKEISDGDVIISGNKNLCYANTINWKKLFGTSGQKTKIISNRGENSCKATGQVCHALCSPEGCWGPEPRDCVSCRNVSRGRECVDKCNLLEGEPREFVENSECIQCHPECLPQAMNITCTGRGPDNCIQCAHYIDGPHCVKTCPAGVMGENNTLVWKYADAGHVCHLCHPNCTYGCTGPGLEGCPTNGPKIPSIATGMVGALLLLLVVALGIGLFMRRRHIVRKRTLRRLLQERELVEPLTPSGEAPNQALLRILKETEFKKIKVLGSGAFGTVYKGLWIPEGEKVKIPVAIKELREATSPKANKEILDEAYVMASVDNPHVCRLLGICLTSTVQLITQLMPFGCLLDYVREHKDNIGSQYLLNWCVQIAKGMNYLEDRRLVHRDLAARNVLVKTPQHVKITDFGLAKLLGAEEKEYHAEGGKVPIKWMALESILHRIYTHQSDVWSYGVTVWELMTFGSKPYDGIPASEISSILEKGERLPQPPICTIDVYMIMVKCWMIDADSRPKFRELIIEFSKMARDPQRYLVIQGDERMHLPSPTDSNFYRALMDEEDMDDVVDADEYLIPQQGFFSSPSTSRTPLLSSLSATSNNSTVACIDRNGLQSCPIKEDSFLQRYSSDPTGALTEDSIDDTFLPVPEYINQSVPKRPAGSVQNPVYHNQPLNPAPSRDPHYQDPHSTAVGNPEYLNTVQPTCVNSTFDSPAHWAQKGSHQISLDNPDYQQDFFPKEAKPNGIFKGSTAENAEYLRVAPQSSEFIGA

IC50 [1] | IC50 [2] | SMILES
15 µM | > 50 µM | COc1cc2ncnc(Nc3ccc(Nc4ccccc4)cc3)c2cc1OC
> 50 µM | > 50 µM | COc1cc2nccc(Nc3ccc(OCc4ccccc4)cc3)c2cc1OC
15 µM | 12 µM | COc1ccc2ncnc(Nc3ccc(OCc4ccccc4)cc3)c2c1
> 30 µM | 50 µM | Clc1ccc2c(Nc3ccc(OCc4ccccc4)cc3)ncnc2c1
> 50 µM | > 50 µM | O=[N+]([O-])c1ccc2ncnc(Nc3ccc(Oc4ccccc4)cc3)c2c1
50 µM | > 50 µM | COc1cc2nccc(Nc3ccc(N4C(=O)c5ccc(Cl)cc5C4=O)c(C)c3)c2cc1OC
1.6 µM | 6.9 µM | COc1cc2ncnc(Nc3ccc(OCc4ccccc4)c(OC)c3)c2cc1OC
> 50 µM | > 50 µM | c1csc(COc2ccc(Nc3ncnc4ccccc34)cc2)c1
> 50 µM | 31 µM | c1ccc(Oc2ccc(Nc3ccnc4ccccc34)cc2)cc1
> 50 µM | > 50 µM | c1ccc(COc2ccc(Nc3ccnc4ccccc34)cc2)cc1
> 50 µM | 50 µM | c1ccc(COc2cccc(Nc3ncnc4ccccc34)c2)cc1
65 µM | > 50 µM | COc1ccc2c(Nc3ccc(OCc4ccccc4)cc3)ncnc2c1
> 30 µM | > 50 µM | Cc1cc2ncnc(Nc3ccc(OCc4ccccc4)cc3)c2cc1C
5 µM | 50 µM | COc1cc2ncnc(Nc3ccc(OCc4ccccc4)cc3)c2cc1OC
10 µM | 29 µM | Brc1ccc2ncnc(Nc3ccc(OCc4ccccc4)cc3)c2c1
11 µM | 28 µM | COc1cccc2ncnc(Nc3ccc(OCc4ccccc4)cc3)c12
> 50 µM | > 50 µM | c1ccc(COc2ccc(Oc3ncnc4ccccc34)cc2)cc1
8 µM | 30 µM | COc1cc2ncnc(Nc3ccc(Oc4ccccc4)cc3)c2cc1OC
